What was measured:
[1] = tested on: C57BL/6 mice; experiment: Reduction of serum iron by Fpn127 in C57BL/6 mice; assay type: in vivo, mouse; conditions: naïve C57BL/6 mice; for Serum iron: 4 h post dosing; for Serum iron (hypoferremia sustained): 8 h post dosing
Description: FIG. 2: Serum iron levels in naïve C57BL/6 mice treated with Fpn127 at 120 mg/kg or 300 mg/kg for 4 h or 8 h. Vehicle was 0.5% methylcellulose in water
To determine the dose of Fpn127 that causes sustained serum iron reduction, C57BL/6 mice received either 120 mg/kg or 300 mg/kg of Fpn127 po for 4 h or 8 h.

[2] = tested on: guinea pigs; conditions: cited from earlier work
[3] = i.v. dosing after RBC transfusion

| SMILES | Serum iron ([1]; 120 mg/kg po) | Serum iron (hypoferremia sustained) ([1]; 120 mg/kg po) | Serum iron ([1]; 300 mg/kg po) | Serum iron (hypoferremia sustained) ([1]; 300 mg/kg po) | Hb levels following exchange transfusion [2, 3] | NTBI levels following exchange transfusion [2, 3] | Total iron in kidneys following transfusion [2, 3] | Occurrence of changes in plasma creatinine >0.3 mg/dL (indicator of early AKI) ([2]; i.v. dosing, transfused animals) | Cellular injury ([2]; i.v. immediately after acute red blood cell transfusions) |
| --- | --- | --- | --- | --- | --- | --- | --- | --- | --- |
| O=C(NCc1ncccc1F)c1coc(CCNCCc2nc3ccccc3[nH]2)n1 [Fpn127] | reduced significantly | only the dose of 300 mg/kg sustained the hypoferremia | reduced significantly | sustained the hypoferremia | – | – | – | – | – |
| O=C(NCc1ncccc1F)c1csc(CCNCc2nc3ccccc3[nH]2)n1 [VIT-2653] | – | – | – | – | significantly improved | significantly improved | can be reduced | significantly reduced | attenuation of cellular injury |

— patent US20220323416A1, “Ferroportin-Inhibitors For The Use In The Prevention And Treatment Of Kidney Injuries” (Vifor (International) AG, priority 2019, published 2022)
